GHS category data for 104 molecules are collected here from the CATMoS acute toxicity set (Mansouri et al. 2021).

This data set can be described thus: GHS categories as the set defines them, by LD50: 1 up to 5, 2 up to 50, 3 up to 300, 4 up to 2000, 5 above 2000 mg/kg. Conditions: rat; in vivo; po.

Consider `CCCc1c(Cc2ccc(-c3ccccc3-c3nn[nH]n3)cc2)c(N)nc2ncnn12`, for which the GHS category is reported as 4.

For `CC(C)=CCC[C@@](C)(O)[C@H]1CC=C(C)CC1`, the GHS category came out at 5.

With `COc1ccc(Br)cc1`, the GHS category was determined as 4.

The molecule `CN1C(=CC=O)C(C)(C)c2ccccc21` came in with a GHS category of 3.

In turn, `Oc1c(-c2[nH]c3ccccc3c2O)[nH]c2ccccc12` showed a GHS category of 5.

Regarding `C=C(C)CC1CCCCCCCCCCC1=O` (centres undefined), the GHS category is on record as 5.

In turn, `O=C(c1ccc(F)cc1)c1cc(I)ccc1Cl` yielded a GHS category of 5.

Molecule `O=C(Nc1ccc(NC(=O)c2cc3ccccc3c(N=Nc3ccc(Cl)cc3[N+](=O)[O-])c2O)c(Cl)c1)c1cc2ccccc2c(N=Nc2ccc(Cl)cc2[N+](=O)[O-])c1O` yielded a GHS category of 5.

Consider `CCCCCCCCC(C)C(C)CCCCCCCC` (centres undefined), for which the GHS category came to 5.

`CCCCCCC(=O)OC`: the GHS category is 5.

For `C=CC(C)(O)CCC=C(C)CCC=C(C)C` (centres undefined), the GHS category worked out at 5.

For the molecule `CCOC(=O)/C=C(C)/C=C/CC(C)CCCC(C)C` (centres undefined), the GHS category was 5.

For the molecule `CCC[C@H](N[C@@H](C)C(=O)N1[C@H](C(=O)O)C[C@@H]2CCCC[C@@H]21)C(=O)OCC`, the GHS category turned out to be 5.

Take `CCOC(=O)CNc1nc(Cl)nc(NC(C)C)n1`: the GHS category stood at 5.

In turn, `CC(=O)OCC1=C(C(=O)O)N2C(=O)[C@@H](NC(=O)[C@H](N)c3ccccc3)[C@H]2SC1` showed a GHS category of 5.

Turning to `CN1C(C(=O)Nc2ccc(O)cn2)=C(O)c2sccc2S1(=O)=O`, the GHS category was determined as 2.

`COc1ccccc1C=CC=O` registered a GHS category of 5.

`CC(C)(C)OOC(C)(C)CCC(C)(C)OOC(C)(C)C` registered a GHS category of 5.

`CCc1c(Cc2ccc(-c3ccccc3-c3nn[nH]n3)cc2)c(=O)nc2nc[nH]n12` yielded a GHS category of 4.

Molecule `COC(OC)N(C)C` yielded a GHS category of 5.

`C=CC(=O)NCCO` came in with a GHS category of 5.

`CC(C)OC(=O)C(C)(C)Oc1ccc(C(=O)c2ccc(Cl)cc2)cc1` displayed a GHS category of 5.

The molecule `CCCCCC=CCC=CCC=CCC=CCCCC(=O)OCC` gave a GHS category of 5.

On to `CCCCCCCC(=O)OCCC(C)O` (centres undefined), for which the GHS category was 2.

With `O=C(O)CN1C(=O)c2cccc3cccc(c23)C1=O`, the GHS category turned out to be 5.

`CCN(CC)c1ccc(C=NN(c2ccccc2)c2ccccc2)cc1` had a GHS category of 5.

`COc1ccc(CCN2CCC(Nc3nc4ccccc4n3Cc3ccc(F)cc3)CC2)cc1` had a GHS category of 5.

Molecule `CCCCC(CC)COCC(O)COc1ccc(-c2nc(-c3ccc(C)cc3C)nc(-c3ccc(C)cc3C)n2)c(O)c1` (centres undefined) displayed a GHS category of 5.

Molecule `COc1ccc(C=Nc2ccccc2C(=O)O)cc1` gave a GHS category of 4.

`CC(Br)(CBr)COc1c(Br)cc(C(C)(C)c2cc(Br)c(OCC(C)(Br)CBr)c(Br)c2)cc1Br` (centres undefined) registered a GHS category of 5.

On to `CCC(C)(O)CCCC(C)C` (centres undefined), for which the GHS category was 5.

`CCNC(=O)CCSCc1nnnn1-c1ccccc1` yielded a GHS category of 4.

For the molecule `CC1=CC1`, the GHS category is given as 5.

For `N[C@H](C(=O)O)c1ccc(O)cc1`, the GHS category amounted to 5.

`CC(=O)OC(C)c1ccccc1` (racemic) gave a GHS category of 5.

For the molecule `CCC(C)(CC)c1ccc(NC(=O)c2c(OC)cccc2OC)nn1`, the GHS category stood at 4.

`COC(=O)c1ccc2cc(C(=O)OC)ccc2c1`: the GHS category was found to be 5.

Consider `Cc1cccc(NC(=O)c2cc(C)[nH]n2)c1`, for which the GHS category was determined as 5.

Molecule `CCC(=O)OC/C=C(/C)CCC=C(C)C` returned a GHS category of 5.

In the case of `N#CNC(=N)NCCCCCCNC(=N)NC#N`, the GHS category is on record as 5.

`OC(c1ccc(F)cc1F)c1cccnc1Cl` (centres undefined) showed a GHS category of 5.

Molecule `COc1ccc2c(c1)c(CC(=O)NC1CCCC1)c(C)n2C(=O)c1ccc(Cl)cc1` came in with a GHS category of 5.

As to `O=C1c2ccccc2C(=O)c2ccccc21`, the GHS category is reported as 5.

`Cc1cccc2ncc(C(=O)Nc3ccccc3)c(=O)n12` gave a GHS category of 3.

`C=COCCOCCOC(=O)C=C` registered a GHS category of 4.

The molecule `Cc1nc(Cl)cc(Nc2ncc(C(=O)Nc3c(C)cccc3Cl)s2)n1` had a GHS category of 5.

`O=C(O)CCCCC(=O)O` displayed a GHS category of 5.

Molecule `COC[C@H]1CO[C@@](Cn2ccnc2)(c2cc3cc(Cl)cc(Cl)c3o2)O1` showed a GHS category of 4.

`C=C(C)C(=O)NCCC[N+](C)(C)C`: the GHS category is on record as 5.

Turning to `C=CC(=C)CCC=C(C)CCC=C(C)C=O`, the GHS category was determined as 5.

Molecule `CC(C)(C)c1cc(S)c(O)c(C(C)(C)C)c1` showed a GHS category of 5.

On to `CC(C)=CCN(CC=C(C)C)CCC(C#N)(CCN(CC=C(C)C)CC=C(C)C)c1cccc2ccccc12`, for which the GHS category is on record as 4.

In turn, `CCC=CCC=CCC=CCC=CCCCCCCC(=O)OCC` showed a GHS category of 5.

`CNc1nc(Nc2ccc(C=Cc3ccc(Nc4nc(NC)nc(N(CCO)CCO)n4)cc3S(=O)(=O)O)c(S(=O)(=O)O)c2)nc(N(CCO)CCO)n1`: the GHS category stood at 5.

With `CO[C@@H]1[C@@H](O[C@@H]2O[C@H](C)[C@@H](O[C@H]3C[C@@](C)(O)[C@@H](O)[C@H](C)O3)[C@H](N(C)C)[C@H]2O)[C@@H](CC=O)C[C@@H](C)[C@@H](O[C@@H]2CC[C@H](N(C)C)[C@@H](C)O2)C=CC=CC[C@@H](C)OC(=O)C[C@H]1OC(C)=O`, the GHS category is reported as 5.

The molecule `O=C(OCCOCCO)c1ccccc1Nc1ccc(O)c(C(F)(F)F)c1` had a GHS category of 4.

Consider `C#CCOc1ccc(CCNC(=O)C(OCC#C)c2ccc(Cl)cc2)cc1OC` (centres undefined), for which the GHS category turned out to be 5.

`O=C(OCCCc1ccccc1)c1ccccc1`: the GHS category is 5.

In turn, `COc1ccccc1N1CCN(/C(N)=N/c2cc(Cl)cc(Cl)c2)CC1` came in with a GHS category of 4.

`CCCCNc1cc(C(=O)O)cc(S(N)(=O)=O)c1Oc1ccccc1` gave a GHS category of 5.

`C[C@H]1C[C@@H]2[C@H]([C@@H](O)C[C@@]3(C)[C@H]2CC[C@]3(O)C(=O)CO)[C@@]2(C)C=CC(=O)C=C12` showed a GHS category of 5.

Molecule `CNc1ccc(C(=O)c2ccccc2)cc1O` registered a GHS category of 5.

On to `Cc1ccc(C(=O)Oc2ccc(C(O)CNC(C)(C)C)cc2OC(=O)c2ccc(C)cc2)cc1` (centres undefined), for which the GHS category is 5.

The molecule `COC(OC)C(C)Cc1ccc(C(C)C)cc1` (centres undefined) displayed a GHS category of 5.

The molecule `CC(O)C(C)O` (centres undefined) had a GHS category of 5.

For `O=c1cc[nH]c(=O)[nH]1`, the GHS category is 5.

Molecule `O=C(O)CN(CC(=O)O)CC(O)CN(CC(=O)O)CC(=O)O` registered a GHS category of 5.

Molecule `O=S(=O)(O)Cc1ccccc1` displayed a GHS category of 4.

For the molecule `CCCC(=O)c1ccc2c(c1)OC(C)(C)C(=O)N2C`, the GHS category was 5.

`COC1(NC(=O)C2SC(=C(C(N)=O)C(=O)O)S2)C(=O)N2C(C(=O)O)=C(CSc3nnnn3C)CSC21` (centres undefined): the GHS category is on record as 5.

On to `Cc1ccc(SCOC(Cn2ccnc2)c2ccc(Cl)cc2Cl)cc1` (centres undefined), for which the GHS category came out at 5.

In turn, `Clc1ccc(N/C(=N/C2CCCCC2)c2ccccc2)cc1Cl` returned a GHS category of 5.

Turning to `CC1Oc2cc(C(=O)C=Cc3ccccc3)ccc2N(C)C1=O` (centres undefined), the GHS category amounted to 5.

Molecule `CCCCCCCN(CCCCCCC)CC(O)c1cc2ccccc2c2cc(Br)ccc12` (centres undefined) displayed a GHS category of 5.

The molecule `CC/C=C\CC(C)OC(=O)c1ccccc1O` (centres undefined) yielded a GHS category of 5.

`Cc1cc(C(=O)Nc2ccccc2C(F)(F)F)n[nH]1` displayed a GHS category of 5.

In the case of `CCCCCCCCC(=O)NO`, the GHS category is on record as 5.

In turn, `CC(C)C(=O)OCC=Cc1ccccc1` registered a GHS category of 5.

For `Nc1ccc2c(c1)C(=O)c1ccccc1C2=O`, the GHS category is listed as 5.

For the molecule `CC1=C(CCC(=O)O)c2cc3[nH]c(cc4nc(cc5[nH]c(cc1n2)c(C)c5C(C)O)C(C)=C4C(C)O)c(C)c3CCC(=O)O` (centres undefined), the GHS category came to 5.

The molecule `CCC[Si](OCC)(OCC)OCC` showed a GHS category of 5.

Consider `C[C@@H]1CC(C)(C)O[C@](Cn2cncn2)(c2cc3ccccc3o2)O1`, for which the GHS category amounted to 4.

Consider `CCCCCCC(O)CO` (centres undefined), for which the GHS category came to 5.

Take `C=CC(C)(O)CCC=C(C)CC(C)C` (centres undefined): the GHS category is recorded as 5.

`Cc1cc(C)c(C=O)c(C)c1` yielded a GHS category of 5.

In the case of `CCCc1nc2ccnn2c(Cl)c1Cc1ccc(-c2ccccc2-c2nn[nH]n2)cc1`, the GHS category was determined as 4.

Molecule `CC(C)(C)CC(C)(C)c1cc(-n2nc3ccccc3n2)c(O)c(C(C)(C)c2ccccc2)c1` registered a GHS category of 5.

In the case of `CC(C)CCCC(C)CCO` (centres undefined), the GHS category stood at 5.

Molecule `Cc1cccn2c(=O)c(C(=O)NC3CCCC3)cnc12` came in with a GHS category of 3.

Molecule `CNC(=O)C(=NNc1cc([N+](=O)[O-])ccc1OC)C(C)=O` displayed a GHS category of 5.

Consider `C[C@H]1CO[C@@](Cn2cncn2)(c2cc3ccccc3o2)O1`, for which the GHS category worked out at 4.

As to `O=[N+]([O-])c1cc2c(Nc3ccc(F)c(Cl)c3)ncnc2cc1O[C@H]1CCOC1`, the GHS category amounted to 5.

As for `CNC(=O)N(C)c1nc2ccccc2s1`, the GHS category turned out to be 5.

Molecule `CC(C)CCCCCCCCCCCCCCCOC(=O)CCCCCCCCCCCCCCC(C)C` came in with a GHS category of 5.

`CC(C)c1ccccc1OP(=O)(Oc1ccccc1C(C)C)Oc1ccccc1C(C)C`: the GHS category is given as 5.

Consider `CCCC(Cl)CCCC(Cl)CCC(Cl)CCC(Cl)CCC(Cl)CCCC(Cl)CCC` (centres undefined), for which the GHS category is reported as 5.

Molecule `CCCC/C=C\CCCCCCCCCC=O` came in with a GHS category of 5.

In the case of `CC(C)(N=C(O)C(Br)C(C)(C)C)c1ccccc1` (centres undefined), the GHS category was 5.

In turn, `Cc1cnc2c(C(=O)O)c(Cl)ccc2c1` showed a GHS category of 5.

In the case of `COc1c2ccoc2cc2oc(=O)ccc12`, the GHS category came to 5.

As to `CCCCCC(=O)Nc1ccc(Cc2ccccn2)c([N+](=O)[O-])c1`, the GHS category was 3.

The molecule `CC(C)CCCCCCCCCCCCCC=CC1CC(=O)OC1=O` (centres undefined) had a GHS category of 5.

Consider `CCOC(=O)[C@H](CCc1ccccc1)N[C@@H](C)C(=O)N1CC2(C[C@H]1C(=O)O)SCCS2`, for which the GHS category is 5.

In the case of `CCC1COC(=O)O1` (centres undefined), the GHS category is on record as 5.
